Source: ChEMBL document CHEMBL1130121, “Chromeno[3,4-c]pyridin-5-ones: selective human dopamine D4 receptor antagonists as potential antipsychotic agents” (J Med Chem, 1997)

Key:
D(4) dopamine receptor = target: T1, D(4) dopamine receptor (Homo sapiens, UniProt P21917); assay: biochemical
T1 sequence (P21917 whole entry): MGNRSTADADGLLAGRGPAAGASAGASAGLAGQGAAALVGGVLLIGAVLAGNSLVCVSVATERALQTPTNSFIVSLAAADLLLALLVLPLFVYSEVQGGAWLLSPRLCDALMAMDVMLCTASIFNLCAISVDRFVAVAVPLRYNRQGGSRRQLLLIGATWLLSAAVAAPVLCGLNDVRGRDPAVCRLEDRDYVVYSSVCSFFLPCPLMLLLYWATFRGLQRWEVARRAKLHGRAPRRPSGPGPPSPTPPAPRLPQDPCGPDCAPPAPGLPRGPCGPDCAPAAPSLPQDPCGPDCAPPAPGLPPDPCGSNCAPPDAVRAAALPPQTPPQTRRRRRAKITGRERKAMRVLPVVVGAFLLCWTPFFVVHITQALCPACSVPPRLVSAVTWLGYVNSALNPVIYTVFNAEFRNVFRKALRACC
Description: Ability to displace [3H]spiperone from cloned human Dopamine receptor D4 expressed in CHO K-1 cells in vitro

[1] = target: T2, D(4) dopamine receptor (Homo sapiens) (UniProt P21917); assay: Inhibition of mitogenic [3H]thymidine uptake in CHO 10001 cells expressing Dopamine receptor D4; type: functional, cell-based
T2 sequence (whole entry): T1 sequence (P21917 whole entry)

D(3) dopamine receptor = D(3) dopamine receptor (Homo sapiens, UniProt P35462); assay: biochemical
Description: Ability to displace [3H]spiperone from human cloned Dopamine receptor D3 expressed in CHO K-1 cells in vitro.

[2] = target: T3, 5-hydroxytryptamine receptor 1A (Rattus norvegicus, UniProt P19327); assay: Binding affinity against rat brain 5-hydroxytryptamine 1A receptor
T3 sequence (P19327 whole entry): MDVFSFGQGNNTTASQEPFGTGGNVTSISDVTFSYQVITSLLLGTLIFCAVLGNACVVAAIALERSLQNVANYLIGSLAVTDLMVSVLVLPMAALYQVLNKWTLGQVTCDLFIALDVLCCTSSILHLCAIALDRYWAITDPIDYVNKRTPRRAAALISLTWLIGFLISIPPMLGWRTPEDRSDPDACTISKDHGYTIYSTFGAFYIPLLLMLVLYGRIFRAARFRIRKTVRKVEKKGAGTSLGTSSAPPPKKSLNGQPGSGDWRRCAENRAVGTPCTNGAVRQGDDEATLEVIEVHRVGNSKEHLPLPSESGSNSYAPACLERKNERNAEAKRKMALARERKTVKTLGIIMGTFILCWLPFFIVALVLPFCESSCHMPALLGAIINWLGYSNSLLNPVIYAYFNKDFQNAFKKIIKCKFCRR

[3] = target: 5-hydroxytryptamine receptor 2A (Rattus norvegicus, UniProt P14842); assay: Binding affinity against rat brain 5-hydroxytryptamine 2A receptor
[4] = target: T4, Adrenergic receptor alpha-2 (Rattus norvegicus, UniProt P22086+P19328+P22909); assay: Binding affinity against rat brain Alpha-2 adrenergic receptor
T4 sequence (P22086 whole entry): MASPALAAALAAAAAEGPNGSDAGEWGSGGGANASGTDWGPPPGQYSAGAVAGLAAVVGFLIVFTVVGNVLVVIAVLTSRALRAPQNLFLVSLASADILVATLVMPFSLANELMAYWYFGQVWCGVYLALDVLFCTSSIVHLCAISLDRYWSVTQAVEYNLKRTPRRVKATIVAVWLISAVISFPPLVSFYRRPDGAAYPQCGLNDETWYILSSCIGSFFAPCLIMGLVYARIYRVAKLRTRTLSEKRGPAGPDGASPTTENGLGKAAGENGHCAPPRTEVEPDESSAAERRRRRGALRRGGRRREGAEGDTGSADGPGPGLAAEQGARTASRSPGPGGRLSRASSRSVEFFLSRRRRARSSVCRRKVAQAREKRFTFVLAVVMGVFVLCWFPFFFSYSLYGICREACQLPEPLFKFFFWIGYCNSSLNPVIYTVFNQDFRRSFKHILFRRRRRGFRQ
T4 sequence (P19328 whole entry): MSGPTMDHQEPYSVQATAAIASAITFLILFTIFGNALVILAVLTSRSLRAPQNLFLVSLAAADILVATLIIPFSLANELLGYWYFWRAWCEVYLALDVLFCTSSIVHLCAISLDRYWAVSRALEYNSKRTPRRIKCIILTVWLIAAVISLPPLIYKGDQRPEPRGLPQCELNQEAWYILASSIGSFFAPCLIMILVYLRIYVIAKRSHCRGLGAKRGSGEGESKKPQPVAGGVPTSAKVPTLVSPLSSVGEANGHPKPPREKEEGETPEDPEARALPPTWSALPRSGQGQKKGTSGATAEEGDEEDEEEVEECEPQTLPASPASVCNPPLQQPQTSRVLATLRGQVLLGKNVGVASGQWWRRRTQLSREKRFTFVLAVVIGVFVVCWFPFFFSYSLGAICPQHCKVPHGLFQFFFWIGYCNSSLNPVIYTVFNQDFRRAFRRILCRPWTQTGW
T4 sequence (P22909 whole entry): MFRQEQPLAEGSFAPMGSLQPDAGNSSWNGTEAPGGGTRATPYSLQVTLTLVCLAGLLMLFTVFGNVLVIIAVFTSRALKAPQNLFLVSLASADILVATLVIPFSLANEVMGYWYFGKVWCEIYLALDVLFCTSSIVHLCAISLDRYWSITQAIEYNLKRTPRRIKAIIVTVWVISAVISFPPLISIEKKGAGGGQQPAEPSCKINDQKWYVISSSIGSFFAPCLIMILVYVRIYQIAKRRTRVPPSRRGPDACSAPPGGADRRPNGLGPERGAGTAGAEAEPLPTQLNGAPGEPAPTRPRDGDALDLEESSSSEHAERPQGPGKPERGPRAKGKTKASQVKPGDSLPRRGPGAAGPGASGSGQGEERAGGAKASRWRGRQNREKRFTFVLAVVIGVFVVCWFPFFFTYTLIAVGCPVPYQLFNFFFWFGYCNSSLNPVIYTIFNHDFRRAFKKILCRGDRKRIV

[5] = target: T5, Adrenergic receptor alpha-1 (Rattus norvegicus, UniProt P15823+P23944+P43140); assay: Binding affinity against rat brain Alpha-1 adrenergic receptor
T5 sequence (P15823 whole entry): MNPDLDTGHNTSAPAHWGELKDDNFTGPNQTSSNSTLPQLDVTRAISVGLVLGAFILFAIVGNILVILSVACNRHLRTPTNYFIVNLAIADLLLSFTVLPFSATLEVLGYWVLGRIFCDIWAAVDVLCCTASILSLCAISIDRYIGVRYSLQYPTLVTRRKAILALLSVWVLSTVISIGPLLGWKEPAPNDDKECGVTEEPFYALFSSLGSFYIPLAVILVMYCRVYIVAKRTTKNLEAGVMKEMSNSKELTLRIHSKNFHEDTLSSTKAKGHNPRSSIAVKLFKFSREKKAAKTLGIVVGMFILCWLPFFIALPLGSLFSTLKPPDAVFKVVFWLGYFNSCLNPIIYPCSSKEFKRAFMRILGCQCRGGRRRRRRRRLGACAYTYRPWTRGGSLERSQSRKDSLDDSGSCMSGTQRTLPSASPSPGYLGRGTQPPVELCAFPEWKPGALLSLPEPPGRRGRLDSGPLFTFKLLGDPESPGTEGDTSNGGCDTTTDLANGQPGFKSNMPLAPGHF
T5 sequence (P23944 whole entry): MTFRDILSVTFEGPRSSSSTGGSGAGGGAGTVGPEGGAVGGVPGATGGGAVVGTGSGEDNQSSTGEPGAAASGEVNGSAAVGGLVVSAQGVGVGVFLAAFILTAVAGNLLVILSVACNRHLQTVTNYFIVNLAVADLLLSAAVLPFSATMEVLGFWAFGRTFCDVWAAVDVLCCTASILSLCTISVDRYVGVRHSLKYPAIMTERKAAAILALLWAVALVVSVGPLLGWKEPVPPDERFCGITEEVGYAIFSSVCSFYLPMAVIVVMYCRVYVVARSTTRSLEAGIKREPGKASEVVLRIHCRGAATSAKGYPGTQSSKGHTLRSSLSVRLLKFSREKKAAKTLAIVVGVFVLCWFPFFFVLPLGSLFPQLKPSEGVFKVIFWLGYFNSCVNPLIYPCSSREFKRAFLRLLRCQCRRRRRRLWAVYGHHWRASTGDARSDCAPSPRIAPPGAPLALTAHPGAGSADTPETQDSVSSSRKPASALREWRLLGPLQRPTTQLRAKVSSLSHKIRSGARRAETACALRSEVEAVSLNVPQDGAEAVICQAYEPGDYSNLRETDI
T5 sequence (P43140 whole entry): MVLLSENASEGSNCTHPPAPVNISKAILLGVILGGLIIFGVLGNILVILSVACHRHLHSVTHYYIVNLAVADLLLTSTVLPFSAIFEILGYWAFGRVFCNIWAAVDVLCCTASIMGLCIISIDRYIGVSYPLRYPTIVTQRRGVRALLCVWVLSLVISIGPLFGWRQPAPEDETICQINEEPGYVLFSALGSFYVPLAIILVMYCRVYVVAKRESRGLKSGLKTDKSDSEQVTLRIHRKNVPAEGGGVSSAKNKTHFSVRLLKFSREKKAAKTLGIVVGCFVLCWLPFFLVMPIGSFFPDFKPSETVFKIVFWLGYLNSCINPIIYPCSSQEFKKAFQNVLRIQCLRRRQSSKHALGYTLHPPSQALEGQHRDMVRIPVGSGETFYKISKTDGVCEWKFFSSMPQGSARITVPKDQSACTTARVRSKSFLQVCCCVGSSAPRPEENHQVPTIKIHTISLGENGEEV

D(3) dopamine receptor, sequence (P35462 whole entry): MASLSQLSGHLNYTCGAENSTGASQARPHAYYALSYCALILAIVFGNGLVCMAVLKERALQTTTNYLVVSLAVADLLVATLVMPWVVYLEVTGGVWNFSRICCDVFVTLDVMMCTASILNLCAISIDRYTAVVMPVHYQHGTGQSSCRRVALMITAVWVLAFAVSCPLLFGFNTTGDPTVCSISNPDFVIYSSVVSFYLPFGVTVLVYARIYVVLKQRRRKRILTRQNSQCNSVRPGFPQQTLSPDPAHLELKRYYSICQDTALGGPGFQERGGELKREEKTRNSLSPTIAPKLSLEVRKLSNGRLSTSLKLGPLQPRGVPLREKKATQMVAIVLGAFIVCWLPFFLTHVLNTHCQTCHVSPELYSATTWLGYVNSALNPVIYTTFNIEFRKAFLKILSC
5-hydroxytryptamine receptor 2A, sequence (P14842 whole entry): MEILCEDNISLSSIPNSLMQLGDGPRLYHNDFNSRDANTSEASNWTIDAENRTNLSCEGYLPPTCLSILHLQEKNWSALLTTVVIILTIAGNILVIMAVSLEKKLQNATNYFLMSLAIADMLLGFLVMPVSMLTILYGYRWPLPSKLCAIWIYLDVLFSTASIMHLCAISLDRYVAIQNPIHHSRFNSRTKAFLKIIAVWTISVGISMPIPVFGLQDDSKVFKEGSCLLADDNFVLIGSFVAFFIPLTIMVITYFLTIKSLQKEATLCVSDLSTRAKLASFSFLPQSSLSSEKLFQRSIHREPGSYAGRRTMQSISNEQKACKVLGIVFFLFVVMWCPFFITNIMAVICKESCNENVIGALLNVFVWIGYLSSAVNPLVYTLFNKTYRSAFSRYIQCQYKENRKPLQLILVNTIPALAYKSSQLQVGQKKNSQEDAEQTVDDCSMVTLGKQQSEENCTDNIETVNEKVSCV

Row | Compound | Ki (D(4) dopamine receptor) [nM] | Intrinsic activity [1] [%] | Ki (D(3) dopamine receptor) [nM] | further results
1 | Cc1cc(O)c2c3c(c(=O)oc2c1)CN(Cc1ccccc1)CC3 | 145 |  |  | 
2 | O=c1oc2cc(O)ccc2c2c1CN(Cc1ccc(Cl)cc1)CC2 | 2.4 | 23.2 | 317 | 
3 | COc1ccc2c3c(c(=O)oc2c1)CN(Cc1ccccc1)CC3 |  | 23.2 |  | 
4 | COc1ccc2c3c(c(=O)oc2c1)CN(c1ccccc1)CC3 | > 3300 |  |  | 
5 | COc1ccc2c3c(c(=O)oc2c1)CN(Cc1ccc(C(F)(F)F)cc1)CC3 |  | 0 |  | 
6 | COc1ccc2c3c(c(=O)oc2c1)CN(Cc1ccc(C)cc1)CC3 |  | 10 |  | 
7 | COc1ccc2c3c(c(=O)oc2c1)CN(Cc1ccc(Cl)cc1)CC3 | 8.7 | 26.8 | 2780 | 
8 | Cc1ccc2c3c(c(=O)oc2c1)CN(Cc1ccc(Cl)cc1)CC3 | 11 |  |  | 
9 | COc1ccc2c3c(c(=O)oc2c1)CN(Cc1ccc([N+](=O)[O-])cc1)CC3 |  | 25.2 | > 3000 | 
10 | COc1ccc2c3c(c(=O)oc2c1)CN(Cc1ccc(F)cc1)CC3 | 4.3 | 35.2 | 548 | 
11 | COc1ccc2c3c(c(=O)oc2c1)CN(Cc1cccc(Cl)c1)CC3 | 17 | 30.7 |  | 
12 | COc1ccc2c3c(c(=O)oc2c1)CN(CCc1ccccc1)CC3 | 7.9 |  |  | 
13 | COc1cc2oc(=O)c3c(c2cc1OC)CCN(Cc1ccc(Cl)cc1)C3 |  | 21.2 | > 3000 | 
14 | Cc1ccc2c3c(c(=O)oc2c1)CN(Cc1ccccc1)CC3 |  | 12.4 |  | Ki [2]: > 700 nM; Ki [3]: > 700 nM; Ki [4]: > 700 nM; Ki [5]: > 700 nM
15 | COc1ccc2c3c(c(=O)oc2c1)CN(C(=O)c1ccccc1)CC3 | 420 |  |  | 
16 | COc1ccc2c3c(c(=O)oc2c1OC)CN(Cc1ccccc1)CC3 | 16 |  | 1300 | 
17 | Cc1ccc2c3c(c(=O)oc2c1)CN(Cc1ccc(F)cc1)CC3 | 7.5 | 0 | 2210 | 
18 | COc1ccc2c3c(c(=O)oc2c1)CCN(Cc1ccccc1)C3 | > 3300 |  |  | 
